Patent US20230210849A1, “CADHERIN-11 INHIBITOR FORMULATION AND ITS USES IN IMMUNOTHERAPY” (GEORGETOWN UNIVERSITY, priority 2020, published 2023)
Entries after “also recorded” stand apart in the source; their conditions may differ.

Columns and labels:
[1] = Body weight / toxicity of treated mT3 tumor-bearing mice; type: in vivo, mouse
Method: Body weight of C57BL/6J mice engrafted with syngeneic mT3 cells and treated with (A) vehicle (DMSO), (B) gemcitabine, (C) CDH11 mAb, (D) CDH11 mAb+ gemcitabine, (E) SD133 at 150 mg/kg for 2 weeks, (F) SD133 at 150 mg/kg for 2 weeks+ gemcitabine; (G) vehicle (10% DMSO in 30% PEG400), (H) SD133 at 150 mg/kg for 5 weeks, and mice with pre-existing mT3 tumors treated with (I) SD133 at 40 mg/kg, and (J) SD133 at 10 mg/kg. Mouse body weight was measured once or twice a week. Body weight of immunodeficient Rag1-mutant mice on C57BL/6J background with pre-existing syngeneic mT3 tumors treated with (K) vehicle (10% DMSO in 30% PEG400), and (L) SD133 at 40 mg/kg. Gender of mice is indicated in the graphs by commonly used gender symbols. The dose, route and treatment schedule are indicated in colored bars under the x-axes.
(§1) Anti-PD1 (InVivoPlus anti-mouse PD1 (CD279), clone RMP1-14, Cat #BP0146, Bio X Cell (Lebanon, N.H.)) was administered intraperitoneally (i.p.) at 250 μg/mouse, 2× week. Gemcitabine (G-4177, LC Laboratories (Woburn, Mass.)) was administered i.p. at 100 mg/kg, 2× week. Treatment with CDH11 monoclonal antibody (mAb), SYN0012 (Roche (Basel, Switzerland)) was administered i.p. at 10 mg/kg, 2× week. Treatment with a small molecule CDH11-inhibitor, SD133, was administered i.p. at 150 mg/kg, 40 mg/kg or 10 mg/kg, 4× week. Stock solution of SD133 at 375 mg/mL was made in DMSO (Sigma (St. Louis, Mo.)), and further diluted in 30% PEG400 (Sigma).

[2] = test system: mT3 pancreatic cancer cells; experiment: s.c. mT3 tumor growth in immunocompromised Rag1-mutant mice; type: in vivo, mouse; conditions: SD133 40 mg/kg, pre-existing tumors 100 mm^3, Rag1-mutant mice without mature T and B cells (FIG. 5I)
Description: (§2) The experimental protocols were approved by the Georgetown University Animal Care and Use Committee. A pair of CDH11^−/− mice (Horikawa et al. Dev. Biol. 215: 182-189 (1999)) was kindly provided by Dr. Michael Brenner from Harvard University. A breeding pair of p48-Cre;LSL-Kras^G12D/+;LSL-Trp53^R172H/+ (KPC) mice (Hingorani et al. Cancer Cell 7: 469-483 (2005)) was provided by Dr. Anton Wellstein from Georgetown University. C57BL/6J mice (Cat #000664; Research Resource Identifier (RRID): IMSR_JAX:000664) and Rag1-mutant mice on C57BL/6J background (Cat #002216; RRID: IMSR_JAX:002216) were purchased from The Jackson Laboratory (Bar Harbor, Me.). In transplant experiments, 12-week old C57BL/6J and Rag1-mutant (on C57BL/6J background) mice were bilaterally subcutaneously (s.c.) injected with 5×10^5 mT3 pancreatic cancer cells, derived from a Kras^+/LSL-G12D;Trp53^+/LSL-R172H;Pdx-Cre mouse on C57BL/6 background. Both genders of mice were equally represented throughout all in vivo experiments. Mice were housed in specific pathogen free environment under standard conditions. See, Bandrowski et al. “The Resource Identification Initiative: A cultural shift in publishing,” F1000Res 4: 134 (2015), regarding Research Resource Identifiers (RRIDs), […]

[3] = target: T1, CDH11 (Homo sapiens, UniProt P55287); conditions: in vitro; previously characterized and validated; cited from earlier work
T1 sequence (P55287 54-796): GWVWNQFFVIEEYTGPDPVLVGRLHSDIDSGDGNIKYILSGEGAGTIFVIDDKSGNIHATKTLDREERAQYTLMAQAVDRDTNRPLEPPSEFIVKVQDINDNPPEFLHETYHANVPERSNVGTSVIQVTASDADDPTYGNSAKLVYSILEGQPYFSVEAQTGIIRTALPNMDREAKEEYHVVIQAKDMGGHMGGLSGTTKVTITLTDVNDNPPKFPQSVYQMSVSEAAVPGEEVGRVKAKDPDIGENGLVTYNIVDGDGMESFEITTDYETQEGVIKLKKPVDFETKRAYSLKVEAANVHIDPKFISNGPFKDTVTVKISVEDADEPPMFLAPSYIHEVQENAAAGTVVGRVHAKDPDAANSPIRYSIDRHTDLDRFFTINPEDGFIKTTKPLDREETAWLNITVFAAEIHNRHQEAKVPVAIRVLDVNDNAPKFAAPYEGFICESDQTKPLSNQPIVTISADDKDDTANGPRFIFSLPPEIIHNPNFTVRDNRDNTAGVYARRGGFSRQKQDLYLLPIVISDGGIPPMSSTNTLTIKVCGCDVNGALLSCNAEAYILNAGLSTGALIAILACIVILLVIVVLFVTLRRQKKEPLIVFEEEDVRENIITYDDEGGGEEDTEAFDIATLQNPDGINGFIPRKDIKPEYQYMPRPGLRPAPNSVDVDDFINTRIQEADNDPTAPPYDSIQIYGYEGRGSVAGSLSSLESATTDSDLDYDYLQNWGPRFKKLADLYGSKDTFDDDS

[4] = test system: mT3 pancreatic cancer cells; experiment: s.c. mT3 pancreatic tumor growth in immunocompetent C57BL/6J transplant mice; type: in vivo, mouse; conditions: for growth rate of pre-existing tumors: started at average tumor volume 100 mm^3 (FIG. 5H)
Description: The experimental protocols were approved by the Georgetown University Animal Care and Use Committee. A pair of CDH11^−/− mice (Horikawa et al. Dev. Biol. 215: 182-189 (1999)) was kindly provided by Dr. Michael Brenner from Harvard University. A breeding pair of p48-Cre;LSL-Kras^G12D/+;LSL-Trp53^R172H/+ (KPC) mice (Hingorani et al. Cancer Cell 7: 469-483 (2005)) was provided by Dr. Anton Wellstein from Georgetown University. C57BL/6J mice (Cat #000664; Research Resource Identifier (RRID): IMSR_JAX:000664) and Rag1-mutant mice on C57BL/6J background (Cat #002216; RRID: IMSR_JAX:002216) were purchased from The Jackson Laboratory (Bar Harbor, Me.). In transplant experiments, 12-week old C57BL/6J and Rag1-mutant (on C57BL/6J background) mice were bilaterally subcutaneously (s.c.) injected with 5×10^5 mT3 pancreatic cancer cells, derived from a Kras^+/LSL-G12D;Trp53^+/LSL-R172H;Pdx-Cre mouse on C57BL/6 background. Both genders of mice were equally represented throughout all in vivo experiments. Mice were housed in specific pathogen free environment under standard conditions. See, Bandrowski et al. “The Resource Identification Initiative: A cultural shift in publishing,” F1000Res 4: 134 (2015), regarding Research Resource Identifiers (RRIDs),
as §1

[5] = test system: KPC mice (PDAC); experiment: Survival of KPC transgenic PDAC mice under treatment; type: in vivo, mouse
Description: as §2

[6] = single agent, mT3-engrafted mice (FIG. 11)

Structure (SMILES) | mouse body weight ([1]; in combination with gemcitabine, mT3-engrafted C57BL/6J mice (FIG. 11)) | toxicity ([1]; mouse, in vivo) | mouse body weight [1, 6] | tumor growth [2] | affinity of binding to the CDH11 binding pocket [3] | growth rate of pre-existing tumors ([4]; SD133 10 mg/kg) | growth rate of pre-existing tumors ([4]; SD133 40 mg/kg) | tumor growth ([4]; SD133 150 mg/kg continued throughout the study, 5 weeks (FIG. 5G)) | combinatorial effect with gemcitabine on tumor growth ([4]; SD133 for 2 weeks + gemcitabine i.p. 100 mg/kg 2x week (FIG. 5F)) | tumor growth ([4]; SD133 i.p. 150 mg/kg 4x week for 2 weeks, beginning on day 2 after cancer cell injection (FIG. 5E)) | tumor size versus control after treatment discontinued ([4]; after the 2-week SD133 treatment was discontinued) | efficacy as a monotherapy (summary) ([4]; immunocompetent mT3 model, summary statement) | first PDAC-related death ([5]; KPC/CDH11-deficient mice, gemcitabine 6 weeks starting at 100 days of age) [days] | overall survival versus untreated KPC/CDH11-deficient group ([5]; gemcitabine 6 weeks starting at 100 days of age (FIG. 4B)) | tumor growth ([4]; monotherapy, gemcitabine i.p. 100 mg/kg 2x week or CDH11 mAb i.p. 10 mg/kg 2x week (FIG. 5A, 5B))
Oc1ccc(-c2cccnc2-c2ccccc2)cc1 [SD133] | does not affect mouse body weight | no sign of toxicity | no decrease in animal weight; also recorded: does not affect mouse body weight | did not suppress tumor growth | low μM | significantly reduced | significantly reduced | reduced tumor growth was observed for the duration of the treatment | not observed | marked reduction in tumor growth | remained significantly smaller than tumors in control animals | remarkably effective | – | – | –
Nc1ccn([C@@H]2O[C@H](CO)[C@@H](O)C2(F)F)c(=O)n1 [gemcitabine, reference compound] | – | – | does not affect mouse body weight | – | – | – | – | – | – | – | – | – | 165 | improved significantly | did not reduce tumor growth
